Assay [1] deals with CD34+ MUTZ3 cells. Put plainly: Drug-induced differentiation of isolated CD34+ MUTZ3 cells. It counts as cell-based, human. To be noted: for share of induced CD1a+ cells also expressing Langerin: CD34+ sorted cells. As for the experimental part: (§1) For mitoxantrone and doxorubicin cultures, 0.1-0.2 million cells/ml of MUTZ3 progenitors or CD34+, CD14+ and double negative (DN) magnetic bead sorted (MACS) MUTZ3 subsets (Miltenyi Biotec, Bergisch Gladbach, Germany) were seeded in 12-well plates in MUTZ3 routine medium or MUTZ3-DC/LC medium in the absence or presence of 1.04 nM, 2.08 nM, 5.6 nM, 16.7 nM mitoxantrone or 16.7 nM or 100 nM doxorubicin and were cultured for 72-96 hours before quantification of viable cells by trypan blue exclusion and phenotypic characterization by flowcytometry. DC and LC were matured (as above) on day 3 or 4 for 24 hours and were functionally tested in mixed leukocyte reaction or migration assays. In case of ABC transporter inhibition, 200 nM Ko-143 was added on day 0 to block BCRP activity.
(§2) Cells were immunophenotyped using the following FITC- and for PE-conjugated Mabs reactive against: CD1a (1:25), CD54 (1:25), CD80 (1:25), CD86 (1:25), CD40 (1:10) (PharMingen, San Diego, Calif.), CD14 (1:25), HLA-DR (1:25), DC-SIGN (1:10) (BD Biosciences, San Jose, Calif.), CD83 (1:10), CD34 (1:10), Langerin (1:10) (Immunotech, Marseille, France). In short, 2.5 to 5·10^4 cells were washed in PBS supplemented with 0.1% BSA and 0.02% NaN3 and incubated with specific or corresponding control Mabs for 30 minutes at 4° C. Where applicable, AnnexinV and/or PI (Propidium iodide) were added after marker staining and 10 minutes prior to analysis. Cells were washed and analyzed on a FACS-calibur flow cytometer (Becton and Dickinson, San Jose, Calif.) equipped with CellQuest analysis software and the results were expressed as mean or median fluorescence intensity or the percentage of positive cells.
To see whether the skewing effect was due to CD34^+ cell death, automatically leading to an altered CD34^+/CD14^+ ratio or whether it induced differentiation of CD34^+ cells into CD14^+ cells and LC, isolated CD34^+ and CD14^+ cells were incubated with 16.7 nM mitoxantrone or 100 nM doxorubicin for 72 hours and were analyzed for differentiation induction.

In assay [2] the test system is MUTZ3 progenitors. In words: 96 hour cytotox assay (Trypan blue exclusion). In kind it is cell-based, human. How it is done: as §1
MUTZ3 progenitor cells were analyzed for their sensitivity to the cytostatic drug mitoxantrone. […] (An example of such trypan blue assay is: place a suitable volume of a cells suspension in appropriate tube add an equal volume of 0.4% Trypan blue and gently mix, let stand for 5 minutes at room temperature. Place 10 μl of stained cells in a hemocytometer and count the number of viable (unstained) and dead (stained) cells. Calculate the average number of unstained cells in each quadrant, and multiply by 2*10^4 to find cells/ml. The percentage of viable cells is the number of viable cells divided by the number of dead and viable cells, and the IC50 can be determined)

The subject of assay [3] is MUTZ3 progenitors. Put plainly: Expansion and DC marker expression of MUTZ3 progenitors cultured with drug (flow cytometry). In kind it is cell-based, human. As for the experimental part:
as §1, §2
Similar experiments were carried out with the drug doxorubicin.

Assay [4] deals with MUTZ3 subpopulations (CD14+, CD34+, DN). In words: Apoptosis and cell death (Annexin V) in MACS-separated MUTZ3 subpopulations. It counts as cell-based, human. How it is done:
as §1, §2

The test system of assay [5] is CD14+ MUTZ3 cells. In words: Drug-induced differentiation of isolated CD14+ MUTZ3 cells. In kind it is cell-based, human. The settings on record: 72 hours, vs PBS control. How it is done:
as §1
as §2, with “In short, 2.5 to 5·10^4 cells were washed in PBS supplemented with 0.1% BSA and 0.02% NaN3 and incubated with specific or corresponding control Mabs for 30 minutes at 4° C. Where applicable, AnnexinV and/or PI (Propidium iodide) were added after marker staining and 10 minutes prior to analysis.” left out, “cells. […]” for “cells.”

Assay [6] has as its system MUTZ3-LC cultures. Put plainly: Acceleration of MUTZ3-LC differentiation in the presence of cytokines. In kind it is cell-based, human. How it is done:
The AML-derived CD34+ MUTZ3 cell line was cultured as described before (Masterson A. J. (2002) Blood 100, 701-703.). In brief, MUTZ3 progenitors were cultured in MEM-alpha (Minimum essential medium, Gibco) containing 20% fetal calves serum (FCS), 100 IU/ml sodium-penicillin, 100 microg/ml streptomycin, 2 mM L-glutamine (pen/strep/glut), 50 microM beta-mercaptoethanol (2ME) and 10% 5637 conditioned medium (MUTZ3 routine medium) in 12-well plates (Co-star) at a concentration of 0.2 million cells/ml and were passaged twice weekly. LC were cultured in MEM-alpha containing 20% FCS, pen/strep/glut, 2ME and 10 ng/ml TGF-beta 1 (Biovision, Mountain View, Calif.), 100 ng/ml rhGM-CSF (Sagramostim, Berlex) and 2.5 ng/ml TNFalpha (Strathmann Biotec) (MUTZ3-LC medium) for 10 days in 12-well plates at a concentration of 0.1 million cells/ml, adding cytokines at day 0, 4 and 7. Interstitial DC were cultured in MEM-alpha containing 20% FCS, pen/strep/glut, 2ME and 10 ng/ml IL-4 (R&D), 100 ng/ml rhGM-CSF and 2.5 ng/ml TNFalpha (MUTZ3-DC medium) Where applicable, immature DC and LC were matured, respectively, by adding 50 ng/ml TNFalpha, 100 ng/ml IL-6 (Strathmann Biotec), […] (Strathmann Biotec) and 1 microg/ml prostaglandin E2 (PGE2) (Sigma Aldrich) for 48 hours.
as §1, §2
Next we tested whether the addition of mitoxantrone or doxorubicin at the start of MUTZ3-LC cultures could boost differentiation. […] In FIG. 4A FSC/SSC plots of day 4 LC cultured with PBS or mitoxantrone and CD1a/Langerin expression on these cultures are depicted.

Assay [7] deals with CD34+ heamatopoietic precursors isolated from human blood. Put plainly: Response of CD34+ heamatopoietic progenitors from blood to mitoxantrone. It counts as cell-based. To be noted: 16.7 nM mitoxantrone.
Assay [8] concerns CD14+ monocytes isolated from blood. Put plainly: Response of CD14+ monocytes isolated from blood to mitoxantrone. In kind it is cell-based, human.
Assay [9] concerns MUTZ3-DC and -LC cultures. In words: Titration of mitoxantrone in MUTZ3-DC and -LC cultures, phenotype analysis. It counts as cell-based, human. How it is done:
as §1, §2
In MUTZ3-DC and -LC cultures, a 2-step titration of the 16.7 nM mitoxantrone concentration was performed and DC/LC phenotypes were analyzed after 72-96 hours.

The test system of assay [10] is MUTZ3-DC. In words: Trans-well migration towards CCL19 and CCL21. The settings on record: day 4 mitoxantrone-generated DC. It counts as cell-based, human. How it is done: as §1
(§3) If such mitoxantrone-generated DC are to be used for future vaccination strategies, they need to be functionally fully active. Therefore MUTZ3-DC cultured in the absence or presence of mitoxantrone, were analyzed in a trans-well assay for their capacity to migrate towards the chemokines CCL19 and CCL21 (FIG. 7A) and were tested in a MLR for their capacity to stimulate allogeneic T cell proliferation (FIG. 7B).

Assay [11] deals with MUTZ3-DC / peripheral blood lymphocytes. In words: Mixed leukocyte reaction (MLR), T cell proliferation. It counts as cell-based, human. To be noted: day 4 mitoxantrone-generated DC. How it is done:
1·10^2-3·10^4 DC were co-cultured with 1·10^5 peripheral blood lymphocytes for 4 days in 96-wells plates in IMDM (Iscove's modified dulbecco's medium) containing 10% human pooled serum (HPS), pen/strep/glut and 2ME. At day 4, 2.5 μCi/ml [^3H]-thymidine (6.7 Ci/mmol, MP Biomedicals, Irvine, Calif.) was added per well for 16 hours. Plates were harvested onto glass fiber filtermats (Packard Instruments, Groningen, The Netherlands) using a Skatron cell harvester (Skatron Instruments, Norway), and [^3H]-thymidine incorporation was quantified using a Topcount NXT Microbetacounter (Packard, Meriden, Conn.).
as §3

Assay [12] has as its system human skin DC. In words: Human skin explant DC migration after intradermal injection. It counts as cell-based. As for the experimental part: To establish whether mitoxantrone could be beneficial as a local adjuvant, human skin explants were intra-dermally injected with GM-CSF and IL-4 in combination with 2.08 nM, 5.6 nM or 16.7 nM mitoxantrone and 6 mm punch biopsies were floated in medium containing the same concentration of mitoxantrone. Skin DC were allowed to migrate from the biopsies for 2 days, after which they were harvested, quantified and phenotyped.

Setting [13] is: 2.08 nM mitoxantrone, mature day 4 MUTZ3-DC/LC.

Take `COc1ccc2c3c([nH]c2c1)[C@H](CC(C)C)N1C(=O)[C@H](CCC(=O)OC(C)(C)C)NC(=O)[C@@H]1C3` [Ko-143]: the “abrogation of mitoxantrone-induced CD1a and Langerin expression by BCRP inhibitor” value in assay [1] (200 nM Ko-143 added on day 0, mitoxantrone-treated CD34+ MUTZ3 cells) is reported as “could not abrogate”.
`COc1cccc2c1C(=O)c1c(O)c3c(c(O)c1C2=O)C[C@@](O)(C(=O)CO)C[C@@H]3O[C@H]1C[C@H](N)[C@H](O)[C@H](C)O1` [doxorubicin]: the “IC70 concentration on MUTZ3” value in assay [2] (cytotoxic effect) is about 100 nM. The “LC differentiation of MUTZ3 progenitors” value in assay [3] (16.7 nM doxorubicin) was “no effects were observed”. Moreover, in assay [3] (IC70 concentration of doxorubicin (~100 nM)), the “LC differentiation of MUTZ3 progenitors” value is reported as “induced LC differentiation of MUTZ3 progenitors”. For the same compound, the “apoptosis and cell death in the three MUTZ3 subpopulations, compared with mitoxantrone” value in [4] (100 nM doxorubicin) is on record as “Comparable results”. Besides, in assay [1] (100 nM doxorubicin, 72 hours), the “CD1a and Langerin expression on CD34+ MUTZ3 cells” value was “induced CD1a and Langerin expression”; the “share of induced CD1a+ cells also expressing Langerin” value is given as “approximately 50%”. The “percentages of CD1a+ or Langerin+ cells in CD14+ cells” value in assay [5] (100 nM doxorubicin) was “not affected”.
`O=C1c2c(O)ccc(O)c2C(=O)c2c(NCCNCCO)ccc(NCCNCCO)c21` [mitoxantrone]: the IC50 in assay [2] (Homo sapiens, 96 hour, Trypan blue exclusion, n=3) was determined as 1.5 ± 0.5 nM. In assay [2] (cytotoxic effect), the “IC60 concentration on MUTZ3 progenitors” value stood at 5.6 nM and the “IC70 concentration on MUTZ3” value was found to be 16.7 nM. Moreover, the “cell division (expansion)” value in assay [3] (5.6 nM and 16.7 nM mitoxantrone, 72 hours) is reported as “dramatically compromising cell division”. Moreover, in assay [3] (5.6 nM and 16.7 nM mitoxantrone, 72 hours, no differentiating cytokines), the “differentiation of MUTZ3 progenitors (CD34+/CD14+ ratio, CD1a, Langerin, CD86, CD80)” value is “drove the surviving MUTZ3 progenitors to differentiation”. Also, the “apoptosis and cell death, CD34+ population” value in [4] (mitoxantrone, 72 hours) is “sensitive to the drug”. For the same compound, the “apoptosis and cell death, CD14+ population” value in assay [4] (mitoxantrone, 72 hours, Annexin V) was “not affected”. For the same compound, the “apoptosis and cell death, DN population” value in assay [4] (mitoxantrone, 72 hours, sensitivity relative to CD34+) is “to a lesser extent”. Further, the “share of induced CD1a+ cells also expressing Langerin” value in assay [1] (16.7 nM mitoxantrone, 72 hours) is given as “approximately 50%”. Besides, the “CD1a and Langerin expression in CD34+ subset” value in assay [1] (16.7 nM mitoxantrone, 72 hours, n=3, p=0.02 CD1a, p=0.03 Langerin) was “significant increase”. For the same compound, the “percentages of CD1a+ or Langerin+ cells in CD14+ cells” value in assay [5] (16.7 nM mitoxantrone) is on record as “not affected”. In [6] (16.7 nM mitoxantrone, day 4), the “expression levels of HLA-DR and CD54” value is reported as “higher expression levels”; the “expression of co-stimulatory molecules CD80 and CD86” value is given as “enhanced expression”. Besides, the “percentage of CD14+ and CD34+ cells” value in assay [6] (16.7 nM mitoxantrone, day 4, 3 experiments, p=0.04 and p=0.02) was “significant decrease”. In addition, the “amount of cells expressing maturation marker CD83” value in assay [6] (16.7 nM mitoxantrone, day 4, p=0.03) was “significant raise”. Also, the “day on which fully differentiated cells were obtained” value in [6] (mitoxantrone with cytokines, control cultures 8-10 days) was 4 days. In addition, the “cells CD1a hi Langerin+” value in assay [6] (single dose 16.7 nM mitoxantrone at day 0, read day 4, control 25%) was found to be 76%. Moreover, the “CD34+ and CD14+ cell content” value in assay [7] (72 hours, Flt3-L and SCF) is “loss of most CD34 positive cells and an increase in CD14 positive cells”. The “percentage of CD1a+ Langerin+ cells” value in [7] (within 72 hours, LC-skewing cytokines, n=2) was “increase”. In addition, in [8], the cell viability entry is listed as “no effect” and the differentiation induction result is “nor was any differentiation induction observed”. For the same compound, the “effect on MUTZ3-DC and -LC differentiation” value in assay [9] (2.08 nM mitoxantrone, 72-96 hours) is given as “robust effect”. Also, the “HLA-DR expression vs control cultures” value in assay [9] (2.08 nM mitoxantrone, day 4 vs day 7 control) was “even higher than on the control cultures”. In addition, in assay [9] (setting [13]), the “amount of CD1a, Langerin, CD80, CD40 and CD83 expressing cells” value was “increased”; the “expression levels of CD80, CD86, CD40 and HLA-DR” value is “enhanced”. Besides, the “Langerin expression in MUTZ3-DC cultures” value in assay [9] (cultures supplied with mitoxantrone) is listed as “increased”. In addition, the “capacity to migrate towards CCL19 and CCL21” value in assay [10] is “comparable to day 7 matured control DC”. Further, the “capacity to stimulate allogeneic T cell proliferation” value in assay [11] is listed as “equipped to induce T cell proliferation”. Further, the “increase in amount of migrated skin DC” value in assay [12] (2.08 nM mitoxantrone with GM-CSF and IL-4, intradermal, 2 days) is listed as 50-60%. Further, the “increase in amount of migrated skin DC” value in assay [12] (5.6 nM mitoxantrone with GM-CSF and IL-4, intradermal, 2 days) is listed as 50-60%. Besides, the “amount of migrated skin DC” value in [12] (16.7 nM mitoxantrone with GM-CSF and IL-4, intradermal, 2 days) was “only slightly increased”. For the same compound, the “amount of skin emigrating DC” value in [12] (low dose of mitoxantrone in plain medium, intradermal) was “increased the amount of skin emigrating DC”.

These data come from patent US8470789B2, “Method for inducing and accelerating cells” (DCPrime B.V., priority 2008, dated 2013).
